Assay results as given in patent publication US12495798B2, “Nicotinamide compound and herbicidal composition comprising compound” (KOREA RESEARCH INSTITUTE OF CHEMICAL TECHNOLOGY, priority 2019, dated 2025).

Experiments:
Assay type in all cases: in vivo
black nightshade = experiment: Herbicidal activity test against upland field weeds (foliar treatment test); design: key to Foliar treatment herbicidal activity, black nightshade: 0 (no control); 100 (complete control); details: 50 g ai/ha, scale 0-100; for pest or weed control at 50 g/ha: Solanum nigrum
Method in brief: (§1)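 Visual 0–100 control ratings relative to untreated plants, taken 14 (or 21) days after spraying foliage at 50 or 75 g a.i./ha. Spray solution: 50% acetone with 0.1% Tween-20; plants kept in greenhouse at 30±5 °C, 14 h light/10 h dark.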

indian jointvetch = experiment: as above; design: key to Foliar treatment herbicidal activity, Indian jointvetch: 0 (no control); 100 (complete control); details: 50 g ai/ha, scale 0-100
Method in brief: as §1

velvetleaf [1] = experiment: as above; design: key to Foliar treatment herbicidal activity, velvet leaf: 0 (no control); 100 (complete control); details: 50 g ai/ha; for pest or weed control at 50 g/ha: Abutilon theophrasti, scale 0-100, read-out: Foliar treatment herbicidal activity, velvet leaf
Method in brief: as §1

cocklebur = experiment: as above; details: 50 g ai/ha, scale 0-100; for pest or weed control at 50 g/ha: Xanthium strumarium
Method in brief: as §1

barnyard grass = experiment: Herbicidal activity test against upland field weeds (soil treatment test); design: key to Soil treatment herbicidal activity, barnyard grass: 0 (no control); 100 (complete control); details: 50 g ai/ha, scale 0 (no control) to 100 (complete control); for pest or weed control at 50 g/ha: Echinochloa crus-galli
Method in brief: (§2)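 Weed control scored visually on a 0 (none) to 100 (complete) scale versus untreated pots at 14 or 21 days in greenhouse (30±5 °C, 14 h light). Test compounds, 50 or 75 g a.i./ha in 50% acetone/0.1% Tween-20, hand-sprayed onto soil one day post-sowing.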

quack grass = experiment: as above; design: key to Soil treatment herbicidal activity, quack grass: 0 (no control); 100 (complete control); details: 50 g ai/ha, scale 0 (no control) to 100 (complete control)
Method in brief: as §2

velvetleaf [2] = experiment: as above; design: key to Soil treatment herbicidal activity, velvet leaf: 0 (no control); 100 (complete control); details: 50 g ai/ha, scale 0 (no control) to 100 (complete control)
Method in brief: as §2

bindweed = experiment: as above; design: key to Soil treatment herbicidal activity, Bindweed: 0 (no control); 100 (complete control); details: 50 g ai/ha, scale 0 (no control) to 100 (complete control)
Method in brief: as §2

corn = experiment: Phytotoxicity test for upland field crops (foliar treatment test); design: key: 0 (no harm); 9 (complete withered)
Method in brief: (§3)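 Post-emergence spray at 19–300 g a.i./ha (acetone/Tween-20 diluent, 100 ml/m²) onto greenhouse-grown plants. Damage rated 7 and 14 (optionally 21) days later on a 0–9 scale relative to untreated plants.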

cotton = experiment: as above; design: key: 0 (no harm); 9 (complete withered)
Method in brief: as §3

rice = experiment: as above; design: key: 0 (no harm); 9 (complete withered)
Method in brief: as §3

soybean = experiment: as above; design: key: 0 (no harm); 9 (complete withered)
Method in brief: as §3

wheat = experiment: as above; design: key: 0 (no harm); 9 (complete withered)
Method in brief: as §3

[3] = 50 g ai/ha, Corn (7 days after treatment)
[4] = 50 g ai/ha, Corn (14 days after treatment)
[5] = 100 g ai/ha, Corn (7 days after treatment)
[6] = 100 g ai/ha, Corn (14 days after treatment)
[7] = 50 g ai/ha, Cotton (7 days after treatment)
[8] = 50 g ai/ha, Cotton (14 days after treatment)
[9] = 100 g ai/ha, Cotton (7 days after treatment)
[10] = 100 g ai/ha, Cotton (14 days after treatment)
[11] = 50 g ai/ha, Rice (7 days after treatment)
[12] = 50 g ai/ha, Rice (14 days after treatment)
[13] = 100 g ai/ha, Rice (7 days after treatment)
[14] = 100 g ai/ha, Rice (14 days after treatment)
[15] = 50 g ai/ha, Soybean (7 days after treatment)
[16] = 50 g ai/ha, Soybean (14 days after treatment)
[17] = 100 g ai/ha, Soybean (7 days after treatment)
[18] = 100 g ai/ha, Soybean (14 days after treatment)
[19] = 50 g ai/ha, Wheat (7 days after treatment)
[20] = 50 g ai/ha, Wheat (14 days after treatment)
[21] = 100 g ai/ha, Wheat (7 days after treatment)
[22] = 100 g ai/ha, Wheat (14 days after treatment)

SMILES | pest or weed control at 50 g/ha (indian jointvetch) [%] | pest or weed control at 50 g/ha (velvetleaf [1]) [%] | pest or weed control at 50 g/ha (cocklebur) [%] | Soil treatment herbicidal activity, quack grass (quack grass) | Soil treatment herbicidal activity, velvet leaf (velvetleaf [2]) | Foliar treatment phytotoxicity, Corn (corn; [3]) | Foliar treatment phytotoxicity, Corn (corn; [4]) | Foliar treatment phytotoxicity, Corn (corn; [5]) | Foliar treatment phytotoxicity, Corn (corn; [6]) | Foliar treatment phytotoxicity, Cotton (cotton; [7]) | Foliar treatment phytotoxicity, Cotton (cotton; [8]) | Foliar treatment phytotoxicity, Cotton (cotton; [9]) | Foliar treatment phytotoxicity, Cotton (cotton; [10]) | Foliar treatment phytotoxicity, Rice (rice; [11]) | Foliar treatment phytotoxicity, Rice (rice; [12]) | Foliar treatment phytotoxicity, Rice (rice; [13]) | Foliar treatment phytotoxicity, Soybean (soybean; [15]) | Foliar treatment phytotoxicity, Soybean (soybean; [16]) | Foliar treatment phytotoxicity, Wheat (wheat; [19]) | Foliar treatment phytotoxicity, Wheat (wheat; [20]) | further results
Cn1nnc(COc2nc(C(F)(F)F)ccc2C(=O)Nc2nnnn2C)n1 [Compound No. 2-1, N-(1-methyl-1H-tetrazol-5-yl)-2-((2-methyl-2H-tetrazol-5-yl)methoxy)-6-(trifluoromethyl)nicotinamide] | 60 | 30 | 60 | 0 | 0 | 2 | 1 | 2 | 2 | 6 | 8 | 6 | 9 | 4 | 3 | 5 | 5 | 6 | 0 | 0 | Foliar treatment herbicidal activity, black nightshade (black nightshade): 100; Soil treatment herbicidal activity, barnyard grass (barnyard grass): 0; Soil treatment herbicidal activity, Bindweed (bindweed): 0; Foliar treatment phytotoxicity, Rice (rice; [14]): 4; Foliar treatment phytotoxicity, Soybean (soybean; [17]): 6; Foliar treatment phytotoxicity, Soybean (soybean; [18]): 6; Foliar treatment phytotoxicity, Wheat (wheat; [21]): 0; Foliar treatment phytotoxicity, Wheat (wheat; [22]): 0
Cn1nnc(COCc2nc(C(F)(F)F)ccc2C(=O)N(c2nnnn2C)S(C)(=O)=O)n1 [Compound No. 2-69, N-(1-methyl-1H-tetrazol-5-yl)-2-(((2-methyl-2H-tetrazol-5-yl)methoxy)methyl)-N-(methylsulfonyl)-6-(trifluoromethyl)nicotinamide] | 80 | 80 | 95 | 0 | 100 | 4 | 3 |  |  | 4 | 9 |  |  | 6 | 7 |  | 6 | 6 | 0 | 0 | pest or weed control at 50 g/ha (black nightshade): 95%; pest or weed control at 50 g/ha (barnyard grass): 100%; pest or weed control at 50 g/ha (bindweed): 70%
Cn1ncnc1COCc1nc(C(F)(F)F)ccc1C(=O)Nc1nnnn1C [Compound No. 1-102, 2-(((1-methyl-1H-1,2,4-triazol-5-yl)methoxy)methyl)-N-(1-methyl-1H-tetrazol-5-yl)-6-(trifluoromethyl)nicotinamide] | 80 | 80 | 80 | 0 |  | 6 | 6 | 6 | 8 | 4 | 8 | 5 | 9 | 6 | 8 | 7 | 5 | 8 | 2 | 2 | pest or weed control at 50 g/ha (black nightshade): 95%; pest or weed control at 50 g/ha (barnyard grass): 20%; pest or weed control at 50 g/ha (velvetleaf [2]; Abutilon theophrasti, read-out: Soil treatment herbicidal activity, velvet leaf): 40%; Soil treatment herbicidal activity, Bindweed (bindweed): 0; Foliar treatment phytotoxicity, Rice (rice; [14]): 9; Foliar treatment phytotoxicity, Soybean (soybean; [17]): 6; Foliar treatment phytotoxicity, Soybean (soybean; [18]): 9; Foliar treatment phytotoxicity, Wheat (wheat; [21]): 3; Foliar treatment phytotoxicity, Wheat (wheat; [22]): 3
Cn1nnc(COCc2nc(C(F)(F)C(F)(F)F)ccc2C(=O)Nc2nnnn2C)n1 [Compound No. 2-81, N-(1-methyl-1H-tetrazol-5-yl)-2-(((2-methyl-2H-tetrazol-5-yl)methoxy)methyl)-6-(perfluoroethyl)nicotinamide] | 80 | 90 | 95 | 0 | 100 | 2 | 1 | 2 | 1 | 4 | 9 | 4 | 9 | 5 | 3 | 6 | 5 | 6 | 0 | 0 | pest or weed control at 50 g/ha (black nightshade): 95%; Soil treatment herbicidal activity, barnyard grass (barnyard grass): 100; pest or weed control at 50 g/ha (bindweed): 70%; Foliar treatment phytotoxicity, Rice (rice; [14]): 5; Foliar treatment phytotoxicity, Soybean (soybean; [17]): 6; Foliar treatment phytotoxicity, Soybean (soybean; [18]): 7; Foliar treatment phytotoxicity, Wheat (wheat; [21]): 0; Foliar treatment phytotoxicity, Wheat (wheat; [22]): 0
COC(=O)OC(C)N(C(=O)c1ccc(C(F)(F)F)nc1COCc1nnn(C)n1)c1nnnn1C (stereo not shown) [Compound No. 4-4, methyl(1-(N-(1-methyl-1H-tetrazol-5-yl)-2-(((2-methyl-2H-tetrazol-5-yl)methoxy)methyl)-6-(trifluoromethyl)nicotinamido)ethyl)carbonate] |  |  |  | 0 | 100 | 0 | 0 | 0 | 0 | 0 | 0 | 0 | 0 | 4 | 4 | 4 | 0 | 0 | 1 | 0 | Foliar treatment herbicidal activity, black nightshade (black nightshade): 100; Foliar treatment herbicidal activity, Indian jointvetch (indian jointvetch): 100; Foliar treatment herbicidal activity, velvet leaf (velvetleaf [1]; scale 0-100): 100; Foliar treatment herbicidal activity, Cocklebur (cocklebur): 98; Soil treatment herbicidal activity, barnyard grass (barnyard grass): 0; Soil treatment herbicidal activity, Bindweed (bindweed): 0; Foliar treatment phytotoxicity, Rice (rice; [14]): 4; Foliar treatment phytotoxicity, Soybean (soybean; [17]): 0; Foliar treatment phytotoxicity, Soybean (soybean; [18]): 0; Foliar treatment phytotoxicity, Wheat (wheat; [21]): 2; Foliar treatment phytotoxicity, Wheat (wheat; [22]): 2
